Results on 13 compounds are retold here after ChEMBL document CHEMBL1201862, “PubChem BioAssay data set” (2004).

Assay [1] has as its target Tyrosine-protein phosphatase non-receptor type 11 (Homo sapiens, UniProt Q06124). As to the kind of experiment: PTPN11 enzyme inhibitors – biochemical, selectivity assay for STEP inhibitor project, dose response (AID 602367). The format is functional. To be noted: read-out: IC50_Mean.
Assay [2] addresses Tyrosine-protein phosphatase non-receptor type 5 (Homo sapiens, UniProt P54829). The assay is described as follows: PTPN5 enzyme inhibition – biochemical, fluorescence intensity, uHTS hits, confirmation (AID 602372). Type of assay: functional. To be noted: read-out: IC50_Mean.
Assay [3] concerns the target Dual specificity protein phosphatase 3 (Homo sapiens, UniProt P51452). The assay is described as follows: VHR phosphatase inhibition, dose response, selectivity assay for STEP inhibitor project, biochemical (AID 602374). The format is functional. To be noted: read-out: IC50_Mean.
The target in assay [4] is Benomyl/methotrexate resistance protein (Candida albicans, UniProt P28873). The assay is described as follows: Candida albicans Mdr1 pump inhibition curves – singleplex, Cherry Pick1 hits, dose response (AID 588608). The format is functional.
Assay [5] has as its target T1, High affinity choline transporter 1 (Homo sapiens, UniProt Q9GZV3).
T1 sequence (Q9GZV3 whole entry): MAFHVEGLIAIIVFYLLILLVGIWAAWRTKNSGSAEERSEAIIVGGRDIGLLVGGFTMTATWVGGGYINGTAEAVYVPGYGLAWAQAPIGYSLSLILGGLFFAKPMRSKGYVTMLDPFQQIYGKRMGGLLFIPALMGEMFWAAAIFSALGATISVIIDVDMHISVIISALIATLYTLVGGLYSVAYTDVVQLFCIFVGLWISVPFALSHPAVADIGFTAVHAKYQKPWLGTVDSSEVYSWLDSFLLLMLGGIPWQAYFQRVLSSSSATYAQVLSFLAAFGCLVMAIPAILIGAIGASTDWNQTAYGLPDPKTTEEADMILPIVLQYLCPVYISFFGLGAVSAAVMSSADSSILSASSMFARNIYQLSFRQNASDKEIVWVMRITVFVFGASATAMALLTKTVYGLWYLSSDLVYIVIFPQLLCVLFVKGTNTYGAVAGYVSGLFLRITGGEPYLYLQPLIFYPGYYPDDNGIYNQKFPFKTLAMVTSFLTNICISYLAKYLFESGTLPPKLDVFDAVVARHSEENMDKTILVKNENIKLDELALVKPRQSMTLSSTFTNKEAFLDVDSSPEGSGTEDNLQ
As to the kind of experiment: human choline transporter blockers, potency – cell-based, 10-point CRC, membrane potential dye, dose response (AID 588401).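 Also: membrane potential dye fluorescence of choline-evoked depolarization via CHT.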 The format is functional.

The target of assay [6] is T1, High affinity choline transporter 1. The assay is described as follows: human choline transporter blockers, potency – cell-based, 5-point CRC, membrane potential dye, dose response (AID 504840). The format is functional.
The target in assay [7] is Potassium voltage-gated channel subfamily KQT member 2 (Rattus norvegicus, UniProt O88943). As to the kind of experiment: blockers of KCNQ2 channel current – cell-based, automated electrophysiology, set II, rat KCNQ2, dose response (AID 588637). The format is functional.
The target in assay [8] is Protein disulfide-isomerase (Homo sapiens, UniProt P07237). As to the kind of experiment: inhibition of PDI-driven insulin aggregation – biochemical, turbidity, absorbance, cherry-picked samples, dose response (AID 602350). The format is functional.
The target in assay [9] is T2, Sentrin-specific protease 8 (Homo sapiens, UniProt Q96LD8).
T2 sequence (Q96LD8 whole entry): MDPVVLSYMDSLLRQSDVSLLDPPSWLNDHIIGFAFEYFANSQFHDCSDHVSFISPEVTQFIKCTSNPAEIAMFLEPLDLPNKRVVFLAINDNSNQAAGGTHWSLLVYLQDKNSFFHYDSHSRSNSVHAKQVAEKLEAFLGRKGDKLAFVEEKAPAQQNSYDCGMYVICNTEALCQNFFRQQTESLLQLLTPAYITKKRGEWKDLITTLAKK
As to the kind of experiment: inhibition of human SENP8 cleavage activity – biochemical, luminescence, SAR follow-up (AID 504501). Type of assay: functional.

For assay [10], the target named is T3, Sentrin-specific protease 7 (Homo sapiens, UniProt Q9BQF6).
T3 sequence (Q9BQF6 whole entry): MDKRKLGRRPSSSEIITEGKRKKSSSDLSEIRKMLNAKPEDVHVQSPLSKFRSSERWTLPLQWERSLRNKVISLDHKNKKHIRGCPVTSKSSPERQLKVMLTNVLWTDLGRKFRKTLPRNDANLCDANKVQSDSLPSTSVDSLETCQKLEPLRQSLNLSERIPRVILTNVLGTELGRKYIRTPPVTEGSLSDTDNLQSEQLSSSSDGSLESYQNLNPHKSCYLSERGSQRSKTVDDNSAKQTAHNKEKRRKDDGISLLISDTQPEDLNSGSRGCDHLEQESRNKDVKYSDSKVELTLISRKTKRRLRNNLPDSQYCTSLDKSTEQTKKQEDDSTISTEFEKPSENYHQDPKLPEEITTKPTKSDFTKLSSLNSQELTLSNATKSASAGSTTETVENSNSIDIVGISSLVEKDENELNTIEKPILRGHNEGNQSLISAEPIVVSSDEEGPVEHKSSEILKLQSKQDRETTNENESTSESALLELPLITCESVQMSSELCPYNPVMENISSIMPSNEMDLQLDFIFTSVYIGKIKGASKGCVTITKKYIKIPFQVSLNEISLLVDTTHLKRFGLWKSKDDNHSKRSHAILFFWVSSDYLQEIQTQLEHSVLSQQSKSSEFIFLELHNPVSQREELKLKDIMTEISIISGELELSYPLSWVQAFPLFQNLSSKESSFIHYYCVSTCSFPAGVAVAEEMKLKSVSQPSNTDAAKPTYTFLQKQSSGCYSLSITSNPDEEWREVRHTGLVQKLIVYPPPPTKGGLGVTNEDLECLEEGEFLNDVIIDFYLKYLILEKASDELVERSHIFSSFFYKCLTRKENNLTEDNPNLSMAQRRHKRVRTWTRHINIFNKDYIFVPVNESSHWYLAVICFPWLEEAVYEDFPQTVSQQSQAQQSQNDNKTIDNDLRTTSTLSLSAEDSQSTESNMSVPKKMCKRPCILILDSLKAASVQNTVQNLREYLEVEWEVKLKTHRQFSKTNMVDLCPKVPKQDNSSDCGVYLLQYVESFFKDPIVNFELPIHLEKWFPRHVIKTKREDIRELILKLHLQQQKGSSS
The assay is described as follows: inhibition of human SENP7 cleavage activity – biochemical, luminescence, SAR follow-up (AID 504497). The format is functional.

The target of assay [11] is T4, Caspase-3 (Homo sapiens, UniProt P42574).
T4 sequence (P42574 whole entry): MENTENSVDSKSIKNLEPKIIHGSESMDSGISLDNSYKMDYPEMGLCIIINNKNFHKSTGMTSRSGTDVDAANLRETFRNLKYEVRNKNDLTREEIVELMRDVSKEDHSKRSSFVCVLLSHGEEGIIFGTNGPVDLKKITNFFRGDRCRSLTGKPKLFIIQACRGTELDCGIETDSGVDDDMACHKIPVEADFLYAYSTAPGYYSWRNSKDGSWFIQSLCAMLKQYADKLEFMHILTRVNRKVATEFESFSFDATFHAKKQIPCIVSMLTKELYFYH
The assay is described as follows: SAR Analysis of small molecule inhibitors of Sentrin-specific proteases (SENPs) using a Caspase-3 Selectivity assay. [Related pubchem assays (depositor defined):AID2540, AID2599, AID434973, AID489001]. Type of assay: functional.

Assay [12] has as its target T5, Sentrin-specific protease 6 (Homo sapiens, UniProt Q9GZR1).
T5 sequence (Q9GZR1 whole entry): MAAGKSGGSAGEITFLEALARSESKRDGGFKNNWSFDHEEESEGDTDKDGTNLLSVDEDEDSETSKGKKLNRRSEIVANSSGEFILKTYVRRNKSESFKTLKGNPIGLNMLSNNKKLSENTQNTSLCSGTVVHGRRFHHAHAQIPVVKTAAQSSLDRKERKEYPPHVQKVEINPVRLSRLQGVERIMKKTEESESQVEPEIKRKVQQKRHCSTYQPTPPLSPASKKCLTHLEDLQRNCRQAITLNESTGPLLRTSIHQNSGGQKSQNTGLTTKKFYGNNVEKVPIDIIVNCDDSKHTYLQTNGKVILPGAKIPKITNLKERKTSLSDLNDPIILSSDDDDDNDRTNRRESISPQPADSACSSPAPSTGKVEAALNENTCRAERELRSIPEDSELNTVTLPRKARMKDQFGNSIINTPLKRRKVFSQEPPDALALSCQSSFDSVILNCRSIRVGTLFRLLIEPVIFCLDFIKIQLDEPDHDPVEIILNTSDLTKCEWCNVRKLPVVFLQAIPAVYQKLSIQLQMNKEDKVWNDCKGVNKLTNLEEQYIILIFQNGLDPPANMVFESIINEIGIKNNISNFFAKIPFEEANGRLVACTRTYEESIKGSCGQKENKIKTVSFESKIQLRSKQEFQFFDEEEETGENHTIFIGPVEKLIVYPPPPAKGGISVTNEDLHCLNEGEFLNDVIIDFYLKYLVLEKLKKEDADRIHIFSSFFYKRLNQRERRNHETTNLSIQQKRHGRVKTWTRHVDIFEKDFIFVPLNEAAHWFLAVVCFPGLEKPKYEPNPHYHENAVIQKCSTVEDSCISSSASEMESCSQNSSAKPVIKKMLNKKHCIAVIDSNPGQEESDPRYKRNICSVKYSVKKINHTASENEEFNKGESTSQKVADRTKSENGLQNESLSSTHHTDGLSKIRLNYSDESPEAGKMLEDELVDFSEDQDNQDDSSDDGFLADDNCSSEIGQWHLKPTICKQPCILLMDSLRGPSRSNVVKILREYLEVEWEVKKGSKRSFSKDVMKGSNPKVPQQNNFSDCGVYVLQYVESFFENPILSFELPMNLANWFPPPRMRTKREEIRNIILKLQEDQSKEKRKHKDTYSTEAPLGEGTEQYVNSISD
As to the kind of experiment: SAR Analysis of small molecule inhibitors of Sentrin-specific protease 6 (SENP6) using a Luminescent assay. [Related pubchem assays (depositor defined):AID2582, AID2599]. Type of assay: functional.

Assay [13] deals with 72 kDa type IV collagenase (Homo sapiens, UniProt P08253). As to the kind of experiment: Dose Response validation of uHTS RPN11 inhibitor hits using a MMP-2 Fluorescence assay. The format is functional.
In assay [14] the target is 26S proteasome non-ATPase regulatory subunit 14 (Homo sapiens, UniProt O00487). As to the kind of experiment: inhibition of proteasome subunit RPN11 – biochemical, fluorescence polarization, uHTS hits, confirmation (AID 602368). The format is functional.
In assay [15] the target is Prothrombin (Bos taurus, UniProt P00735). As to the kind of experiment: thrombin protease inhibitors – biochemical, fluorescence polarization, uHTS hits, dose response (AID 602369). The format is functional. (Polarisation of emitted light reports the rotation of a fluorescent probe.)
Assay [16] relates to INS1. As to the kind of experiment: INS-1E survival protection against cytokine death – cell-based, luminescence, retest, dose response (AID 449756).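 Also: cell death triggered by IL-1 beta plus TNF-alpha plus IFN-gamma mixture; protective hits raise ATP signal compared with cytokine alone wells.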 The format is functional. The following applies: Rattus norvegicus.
Assay [17] deals with Melanin-concentrating hormone receptor 1 (Homo sapiens, UniProt Q99705). The assay is described as follows: Late-stage fluorescence-based counterscreen for antagonists of the G-protein coupled receptor 7 (GPR7): cell-based dose response assay to identify antagonists of the melanin-concentrating hormone receptor 1 (MCHR1) Set 5. Type of assay: functional.
The target of assay [18] is Aryl hydrocarbon receptor (Homo sapiens, UniProt P35869). The following applies: Potency.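 Also: confirmatory quantitative high-throughput screen measuring activation of the AhR signaling pathway.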
Assay [19] deals with Cytochrome P450 3A4 (Homo sapiens, UniProt P08684). The following applies: Potency.

Each structure is given as a SMILES string. Calls of active or inactive are those of the source. Where only a bound is given, the exact number is not on record here.

Protein disulfide-isomerase, sequence (P07237 whole entry): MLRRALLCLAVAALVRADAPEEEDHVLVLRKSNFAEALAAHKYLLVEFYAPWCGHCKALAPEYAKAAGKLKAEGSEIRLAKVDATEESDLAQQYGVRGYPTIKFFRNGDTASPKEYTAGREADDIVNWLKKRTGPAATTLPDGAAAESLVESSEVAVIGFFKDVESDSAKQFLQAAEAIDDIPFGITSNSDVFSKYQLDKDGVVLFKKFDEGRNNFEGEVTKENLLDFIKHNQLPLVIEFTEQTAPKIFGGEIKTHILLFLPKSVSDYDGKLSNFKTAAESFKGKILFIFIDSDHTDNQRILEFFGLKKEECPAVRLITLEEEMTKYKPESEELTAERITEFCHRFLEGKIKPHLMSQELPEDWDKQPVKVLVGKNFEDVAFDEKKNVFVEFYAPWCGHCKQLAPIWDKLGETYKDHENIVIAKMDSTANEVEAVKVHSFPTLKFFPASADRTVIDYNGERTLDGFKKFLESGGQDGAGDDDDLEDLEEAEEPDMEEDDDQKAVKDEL
26S proteasome non-ATPase regulatory subunit 14, sequence (O00487 whole entry): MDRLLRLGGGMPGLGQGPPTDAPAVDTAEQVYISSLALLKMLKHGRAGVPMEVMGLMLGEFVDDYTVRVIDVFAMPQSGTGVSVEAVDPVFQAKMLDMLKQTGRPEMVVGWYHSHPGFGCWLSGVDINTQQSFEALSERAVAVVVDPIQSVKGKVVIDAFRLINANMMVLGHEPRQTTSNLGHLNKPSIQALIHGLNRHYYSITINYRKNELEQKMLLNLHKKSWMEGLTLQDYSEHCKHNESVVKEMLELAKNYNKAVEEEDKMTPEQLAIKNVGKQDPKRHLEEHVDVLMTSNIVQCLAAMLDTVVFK
72 kDa type IV collagenase, sequence (P08253 whole entry): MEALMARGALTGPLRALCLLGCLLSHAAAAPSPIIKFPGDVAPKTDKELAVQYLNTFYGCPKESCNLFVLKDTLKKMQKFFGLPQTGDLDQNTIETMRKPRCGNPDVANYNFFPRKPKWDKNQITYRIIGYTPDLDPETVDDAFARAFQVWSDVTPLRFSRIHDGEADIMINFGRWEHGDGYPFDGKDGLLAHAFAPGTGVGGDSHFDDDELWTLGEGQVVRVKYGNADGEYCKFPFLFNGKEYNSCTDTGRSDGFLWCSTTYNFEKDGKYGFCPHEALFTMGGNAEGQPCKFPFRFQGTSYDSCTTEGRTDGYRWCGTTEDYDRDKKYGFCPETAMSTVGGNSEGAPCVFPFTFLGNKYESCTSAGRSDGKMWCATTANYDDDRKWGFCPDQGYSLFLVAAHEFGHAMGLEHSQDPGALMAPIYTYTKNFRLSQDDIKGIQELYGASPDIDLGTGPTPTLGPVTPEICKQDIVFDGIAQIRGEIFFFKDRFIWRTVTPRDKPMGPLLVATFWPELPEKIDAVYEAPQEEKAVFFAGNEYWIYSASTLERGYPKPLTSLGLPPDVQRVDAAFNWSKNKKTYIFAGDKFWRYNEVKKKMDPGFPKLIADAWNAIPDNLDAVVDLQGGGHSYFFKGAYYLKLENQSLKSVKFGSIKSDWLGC
Tyrosine-protein phosphatase non-receptor type 11, sequence (Q06124 whole entry): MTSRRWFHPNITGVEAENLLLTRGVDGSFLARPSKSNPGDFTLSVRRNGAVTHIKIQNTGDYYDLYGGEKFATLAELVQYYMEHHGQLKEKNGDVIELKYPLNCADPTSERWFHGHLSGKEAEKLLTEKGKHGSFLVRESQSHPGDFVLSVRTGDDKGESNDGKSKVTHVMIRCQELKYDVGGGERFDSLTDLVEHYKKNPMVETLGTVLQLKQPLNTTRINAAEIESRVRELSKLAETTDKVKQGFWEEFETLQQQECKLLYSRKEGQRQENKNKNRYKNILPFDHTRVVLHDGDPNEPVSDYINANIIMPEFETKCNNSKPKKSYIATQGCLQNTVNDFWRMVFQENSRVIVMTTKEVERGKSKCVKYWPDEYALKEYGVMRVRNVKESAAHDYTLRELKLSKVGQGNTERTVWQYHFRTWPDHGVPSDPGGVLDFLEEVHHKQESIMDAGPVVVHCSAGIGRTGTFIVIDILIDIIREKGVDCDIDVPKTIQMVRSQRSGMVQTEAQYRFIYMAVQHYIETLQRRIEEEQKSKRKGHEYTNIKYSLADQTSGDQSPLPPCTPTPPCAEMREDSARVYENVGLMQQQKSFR
Potassium voltage-gated channel subfamily KQT member 2, sequence (O88943 whole entry): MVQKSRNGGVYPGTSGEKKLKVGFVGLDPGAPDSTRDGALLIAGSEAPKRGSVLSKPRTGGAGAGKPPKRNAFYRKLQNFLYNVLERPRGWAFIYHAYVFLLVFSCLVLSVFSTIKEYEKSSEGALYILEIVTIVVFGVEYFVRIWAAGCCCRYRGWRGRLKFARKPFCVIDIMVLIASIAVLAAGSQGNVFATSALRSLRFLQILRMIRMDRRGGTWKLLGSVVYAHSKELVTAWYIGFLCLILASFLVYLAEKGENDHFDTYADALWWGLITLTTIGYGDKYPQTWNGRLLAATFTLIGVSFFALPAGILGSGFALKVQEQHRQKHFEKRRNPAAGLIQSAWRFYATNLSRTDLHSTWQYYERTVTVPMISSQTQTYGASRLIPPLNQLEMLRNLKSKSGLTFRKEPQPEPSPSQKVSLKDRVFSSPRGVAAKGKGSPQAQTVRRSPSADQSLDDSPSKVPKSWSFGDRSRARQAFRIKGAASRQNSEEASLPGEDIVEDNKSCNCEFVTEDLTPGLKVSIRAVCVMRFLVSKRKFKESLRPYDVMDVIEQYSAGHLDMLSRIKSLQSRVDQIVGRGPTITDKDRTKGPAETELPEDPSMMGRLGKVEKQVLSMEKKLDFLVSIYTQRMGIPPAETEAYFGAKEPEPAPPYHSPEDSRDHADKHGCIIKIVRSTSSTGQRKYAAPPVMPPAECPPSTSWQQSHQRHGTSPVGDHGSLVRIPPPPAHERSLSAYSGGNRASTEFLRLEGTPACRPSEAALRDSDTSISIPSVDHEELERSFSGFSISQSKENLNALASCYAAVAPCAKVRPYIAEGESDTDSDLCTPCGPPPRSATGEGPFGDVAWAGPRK
Melanin-concentrating hormone receptor 1, sequence (Q99705 whole entry): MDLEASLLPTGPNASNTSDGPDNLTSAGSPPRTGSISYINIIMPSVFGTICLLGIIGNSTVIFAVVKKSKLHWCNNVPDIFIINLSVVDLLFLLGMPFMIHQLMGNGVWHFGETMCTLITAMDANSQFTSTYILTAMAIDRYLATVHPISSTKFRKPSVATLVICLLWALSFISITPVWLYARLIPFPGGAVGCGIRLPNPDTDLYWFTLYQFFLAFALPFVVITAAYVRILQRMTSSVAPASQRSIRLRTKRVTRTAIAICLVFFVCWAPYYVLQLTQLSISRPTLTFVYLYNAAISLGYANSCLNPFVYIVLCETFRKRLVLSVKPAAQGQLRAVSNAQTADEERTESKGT
Tyrosine-protein phosphatase non-receptor type 5, sequence (P54829 whole entry): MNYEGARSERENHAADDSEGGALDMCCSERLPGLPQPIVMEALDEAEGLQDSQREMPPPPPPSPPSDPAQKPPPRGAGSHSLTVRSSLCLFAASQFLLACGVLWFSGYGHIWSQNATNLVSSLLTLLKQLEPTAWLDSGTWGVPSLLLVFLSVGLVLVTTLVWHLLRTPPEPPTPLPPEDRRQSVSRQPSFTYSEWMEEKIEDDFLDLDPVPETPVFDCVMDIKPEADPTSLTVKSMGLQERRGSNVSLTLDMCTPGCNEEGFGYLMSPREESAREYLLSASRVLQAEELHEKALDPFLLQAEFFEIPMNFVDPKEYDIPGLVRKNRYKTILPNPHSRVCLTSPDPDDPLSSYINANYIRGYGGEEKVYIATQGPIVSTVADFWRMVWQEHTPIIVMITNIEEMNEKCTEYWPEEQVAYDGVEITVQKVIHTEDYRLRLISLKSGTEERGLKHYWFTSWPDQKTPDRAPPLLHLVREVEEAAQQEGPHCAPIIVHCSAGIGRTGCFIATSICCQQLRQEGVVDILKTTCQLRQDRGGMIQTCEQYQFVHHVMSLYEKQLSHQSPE
Benomyl/methotrexate resistance protein, sequence (P28873 whole entry): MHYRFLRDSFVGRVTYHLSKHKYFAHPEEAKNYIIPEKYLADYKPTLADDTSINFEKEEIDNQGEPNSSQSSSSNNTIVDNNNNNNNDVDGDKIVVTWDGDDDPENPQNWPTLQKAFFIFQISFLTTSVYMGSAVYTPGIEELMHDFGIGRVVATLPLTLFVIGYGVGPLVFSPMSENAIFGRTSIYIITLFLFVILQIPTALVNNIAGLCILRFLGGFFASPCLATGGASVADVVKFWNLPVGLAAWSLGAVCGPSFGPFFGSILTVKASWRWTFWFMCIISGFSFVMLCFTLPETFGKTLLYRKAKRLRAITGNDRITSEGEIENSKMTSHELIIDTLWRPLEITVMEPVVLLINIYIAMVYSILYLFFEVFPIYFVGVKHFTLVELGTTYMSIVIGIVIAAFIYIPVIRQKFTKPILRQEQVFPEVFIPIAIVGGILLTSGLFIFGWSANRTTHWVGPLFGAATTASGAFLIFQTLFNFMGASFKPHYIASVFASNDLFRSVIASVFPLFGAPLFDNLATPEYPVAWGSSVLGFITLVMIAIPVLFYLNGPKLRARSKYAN
Cytochrome P450 3A4, sequence (P08684 whole entry): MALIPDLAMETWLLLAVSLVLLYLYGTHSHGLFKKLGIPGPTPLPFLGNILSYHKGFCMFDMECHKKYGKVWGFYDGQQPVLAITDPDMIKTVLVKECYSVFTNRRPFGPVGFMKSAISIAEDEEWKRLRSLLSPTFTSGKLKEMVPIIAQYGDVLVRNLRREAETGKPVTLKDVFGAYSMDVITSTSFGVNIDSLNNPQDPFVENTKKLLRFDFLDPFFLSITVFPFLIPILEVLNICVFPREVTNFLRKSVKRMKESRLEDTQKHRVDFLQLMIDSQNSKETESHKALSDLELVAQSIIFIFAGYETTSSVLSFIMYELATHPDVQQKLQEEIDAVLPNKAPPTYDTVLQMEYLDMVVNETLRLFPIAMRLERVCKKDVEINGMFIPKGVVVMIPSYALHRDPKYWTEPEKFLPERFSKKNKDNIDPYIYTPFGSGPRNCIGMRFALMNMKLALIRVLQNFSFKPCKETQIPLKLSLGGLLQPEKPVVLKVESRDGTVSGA

As to `CCc1ccc(NC(=O)Cc2cn(C)c3ccccc23)cc1`, the IC50 is > 80 µM (inactive) in [1], 57 µM (inactive) in assay [2] and > 80 µM (inactive) in [3].

Regarding `NC(=O)c1nc(-c2ccco2)nc2c1[nH]c(=O)n2-c1ccc(Cl)c(Cl)c1`, the EC50 in assay [4] is 14 µM (active).

Consider `OC(CNC1Cc2ccccc2C1)c1ccccc1` (centres undefined), for which the IC50 was 0.178 µM (active) in assay [5] and 0.479 µM (active) in assay [6].

On to `O=C(COc1ccc(F)cc1Cl)Nc1ccccc1C(=O)N1CCCCC1`, for which, in assay [7], the IC50 was 0.64 µM (active).

For the compound `C[C@H]1CN([C@@H](C)CO)C(=O)c2cc(NC(=O)Cc3cn(C)c4ccccc34)ccc2O[C@@H]1CN(C)S(=O)(=O)c1ccc(F)cc1`, the AC50 in assay [8] was 19.5 µM (active).

`CCOc1ccc2nc(N(CCCn3ccnc3)C(=O)c3ccc(Cl)s3)sc2c1`: the IC50 in assay [9], in assay [10], in assay [11] and in assay [12] was > 99 µM (inactive) in each case.

In the case of `S=C(c1cn(CCOc2cccc3ccccc23)c2ccccc12)N1CCCC1`, the IC50 in assay [13] is > 100 µM (inactive); in assay [14], 32.9 µM (active); in assay [15] it was 41.8 µM (active). Further, the concentration at half-maximal activity (AC50) in [16] was 4.3 µM (active).

With `CSc1ccc(Oc2c(Cl)cnn(Cc3cccc4ccccc34)c2=O)cc1`, the IC50 in assay [17] is 1.22 µM (active).

Take `CCSC1=N/C(=C\c2ccc3c(c2)OCO3)C(=O)S1`: the IC50 in [13] is > 100 µM (inactive); in assay [14], 25 µM (active); in assay [15], 64.3 µM (active).

Take `CC(C)(C)C(=O)C(Oc1ccc(Cl)cc1)n1cncn1` (centres undefined) [TRIADIMEFON]: the concentration at half-maximal activity (AC50) in assay [18] was 70.8 µM (inconclusive); in [19], 0.794 µM (inconclusive).

For `Cc1nn(-c2ccccc2)c2c1C(c1ccc(OC(F)F)cc1)C(C#N)=C(N)O2` (centres undefined), the IC50 in [9], in [10], in [11] and in assay [12] was > 99 µM (inactive) each time.

On to `CCSc1nnc([C@H](Cc2c[nH]c3ccccc23)NC(=O)OC(C)(C)C)o1`, for which the AC50 in [8] is 19.5 µM (active).

As to `COc1ccc(C(=O)NC(C)CCn2cccn2)cc1OC1CCN(C(C)C)CC1` (centres undefined), the IC50 was 4.22 µM (active) in assay [5] and 6.86 µM (active) in assay [6].

The term EC50 denotes the concentration needed to bring the measured effect to its halfway point. Broadly, the AC50 is the concentration at which the activity in the assay is half-maximal.
